Assay results published in US20020137779A1, “Use of L-2-oxothiazolidine-4-carboxylic acid for the treatment of type 2 diabetes” (Advanced Biochemicals Inc., priority 2001, published 2002).

Legend:
[1] = system: type 2 diabetes mice (C57BL/KsJ-db/db Jcl); assay: blood insulin concentration after oral administration for four weeks (Example 5); assay type: in vivo, mouse; conditions: 80 mg/kg per day for four weeks
Experimental: Fifth step Determining the ability of insulin secretion after oral administration of L-2-oxothiazolidine-4-carboxylic acid for 4 weeks to a 7 week old type 2 diabetes mouse, and
Seven week old type 2 diabetes mice were maintained as in EXAMPLE 2. 0.2 ml of PBS (pH 7.4) was given to a control group(4 mice) twice a day for four weeks, and 80 mg/kg of L-2-oxothiazolidine-4-carboxylic acid dissolved in 0.2 ml of PBS of which pH was adjusted to 7.4 with 3 N NaOH(Junsei, Japan), was orally administered to an experimental group(4 mice). Five hours after the drug was finally administered, 1 g/kg of glucose was intraperitoneally injected. Tails were cut, blood samples were taken from the tails at 60 min. time intervals until 180 min., the samples were left at room temperature for three hours, sera were collected, and the insulin concentration was measured by radioimmunoassay.

[2] = system: type 2 diabetes mice (C57BL/KsJ-db/db Jcl); assay: blood glucose levels after oral administration for 1-4 weeks (Example 4); assay type: in vivo, mouse; conditions: for duration of the blood glucose lowering effect: after glucose intake
Experimental: The chemical L-2-oxothiazolidine-4-carboxylic acid was orally administered to diabetes mice(C57BL/KsJ-db/db Jcl) with a single dose of 3.0-400 mg/kg once in the state of empty stomach or 40-80 mg/kg twice a day for 1-4 weeks continuously.
(§1) Seven week old type 2 diabetes mice were maintained as in EXAMPLE 2. 0.2 ml of PBS (pH 7.4) was given to a control group twice a day for 1-4 weeks, and 40-80 mg/kg of L-2-oxothiazolidine-4-carboxylic acid dissolved in 0.2 ml of PBS of which pH was adjusted to 7.4 with 3 N NaOH(Junsei, Japan) was orally administered to an experimental group.
The results of blood glucose levels shown in FIG. 7 were obtained, after 40-80 mg/kg of L-2-oxothiazolidine-4-carboxylic acid was administered to type 2 diabetes mice twice a day for two weeks and after glucose was subsequently given, as described in […]

pancreatic islet cells = assay: insulin secretion of pancreatic islets isolated from mice, radioimmunoassay; assay type: cell-based, C57BL mouse
Experimental: First step; After isolating pancreatic islets from a C57BL mouse according to Lacy and Kotianovsky(Diabetes, 16, 35-39, 1967), the islets were incubated for 60 min. at 37°C. with 250 […] of L-2-oxothiazolidine-4-carboxylic acid alone or together with 2.8-25 mM of glucose, and insulin from the supernatant was measured by radioimmunoassay,
The isolation of pancreatic islets from a C57BL mouse(weight; 20 g, Samtako, Daejeon, Korea) was performed according to the method of Lacy and Kotianovsky et al.(Diabetes, 16; 35-39, 1967). The pancreas of ether-anesthetized mouse was distended by infusion with Hank's balanced salt solution(HBSS, GIBCO, USA) containing 1 mg/ml of collagenase (Sigma, USA) via common bile duct and isolated. The isolated pancreas was digested for 20 min at 37 C while stirring homogeneously. After removing acinar cells by washing with HBSS, pancreatic islets of similar size were collected under dissecting microscope. 2.8-25 mM of glucose(Sigma, USA) alone or together with 250 ^μM-[…] of L-2-oxothiazolidine-4-carboxylic acid were administered to the isolated 10 pancreatic islets in 100 ^μl of Krebs Ringer bicarbonate(Sigma, USA) buffer solution containing 10 mM of Hepes, the islets were incubated for 60 min. at 37 °C., and insulin in the supernatant, from which the pancreatic β-islet cells was removed, was measured. […]

[3] = ED50 by linear regression method; assay type: in vivo; conditions: calculated by linear regression method; read-out: ED50 (50% of maximum effective dose)
Excerpt: ED50 is defined as 50% of maximum effective dose calculated by linear regression method. The term “treat” refers to the ability of the compounds to either relieve, alleviate, or slow the progression of the patient's disease.

[4] = body weight during four weeks of oral administration (Example 4); assay type: in vivo, mouse; conditions: 40-80 mg/kg orally for four weeks; measured at one, two and four week points
Experimental: as §1

[5] = 40 mg/kg for one week, 60 min after glucose intake
[6] = 40 mg/kg for two weeks, 60 min after glucose addition
[7] = 40 mg/kg for two weeks, 120 min after glucose intake
[8] = 80 mg/kg for four weeks, 120 min after glucose intake
[9] = 80 mg/kg for four weeks, fasted state (13 hours)
[10] = 80 mg/kg for one week, 60 min after glucose intake
[11] = 80 mg/kg for one week, 120 min after glucose intake
[12] = 80 mg/kg for one week, fasted state (13 hours)
[13] = 80 mg/kg for two weeks, 60 min after glucose addition
[14] = 80 mg/kg for two weeks, 120 min after glucose intake

O=C1NC(C(=O)O)CS1 [OTC, L-2-oxothiazolidine-4-carboxylic acid]
duration of the effect on insulin concentration [1]: about 120 min | insulin concentration ([1]; 120 min after glucose intake): 1285.04 ± 135.60 pmol/L | increase of insulin concentration compared to the control group ([1]; after 120 min): 4.93 times | insulin concentration ([1]; fasted state): 450 ± 43.50 pmol/L | blood glucose level ([2]; 40 mg/kg for four weeks, 180 min after glucose intake): 50.50 ± 44.21 mg/dL | blood glucose level [2, 5]: 507.50 ± 52.81 mg/dL | decrease of blood glucose level vs control group [2, 5]: 16.8% | blood glucose level [2, 6]: 699.00 ± 58.91 mg/dL | lowering effect of blood glucose levels compared to the control group [2, 6]: 15.83% | blood glucose level [2, 7]: 599.50 ± 52.46 mg/dL | lowering effect of blood glucose levels compared to the control group [2, 7]: 22.2% | blood glucose level ([2]; 40 mg/kg for two weeks, fasted for 13 hours): 306.30 ± 24.06 mg/dL | blood glucose level [2, 8]: 539 ± 23.60 mg/dL | lowering effect of blood glucose levels compared to the control group [2, 8]: 38.8% | blood glucose level [2, 9]: 297.00 ± 26.51 mg/dL | more effective in lowering blood glucose levels than the control group [2, 9]: 32.5% | blood glucose level [2, 10]: 277.50 ± 40.89 mg/dL | decrease of blood glucose level vs control group [2, 10]: 54.51% | blood glucose level [2, 11]: 158.00 ± 28.33 mg/dL | decrease of blood glucose level vs control group [2, 11]: 72.11% | blood glucose level [2, 12]: 116.00 ± 119.74 mg/dL | blood glucose level relative to the control group [2, 12]: 52.07% | blood glucose level [2, 13]: 477.50 ± 58.91 mg/dL | blood glucose level relative to the control group [2, 13]: 42.50% | blood glucose level [2, 14]: 398.00 ± 28.33 mg/dL | lowering effect of blood glucose levels compared to the control group [2, 14]: 48.81% | blood glucose level ([2]; 80 mg/kg for two weeks, fasted for 13 hours): 301.50 ± 12.2 mg/dL | duration of the blood glucose lowering effect ([2]; 40-80 mg/kg for four weeks): about 180 min | duration of the blood glucose lowering effect ([2]; 40-80 mg/kg for one week): about 180 minutes | duration of the blood glucose lowering effect ([2]; 40-80 mg/kg for two weeks): about 180 min | increase of lowering effect of blood glucose levels compared to the control group ([2]; 40-80 mg/kg for two weeks, fasted for 13 hours): 11.5% | insulin secretion of pancreatic islet cells (pancreatic islet cells; 500 μM−2 mM OTC in the presence of 17.5 mM glucose, 60 min at 37°C): increased insulin secretion in a dose-dependent manner | glucose dependence of the stimulation of insulin secretion from pancreatic islets (pancreatic islet cells; OTC 500 μM-2 mM): the presence of glucose is required for the stimulation of insulin secretion | ED50 [3]: 15 mg/kg | weight of the mice [4]: no weight difference
